# What was measured:
# [1] = test system: spontaneously hypertensive rats (SHR); experiment: Blood-pressure lowering effect after oral administration to SHR; type: in vivo; conditions: administered orally, dose of 50 mg/kg
# [2] = test system: SHR; experiment: Hypotensive activity after repeated administration (tolerance); type: in vivo, rats; conditions: administered to SHR for 15 consecutive days
# [3] = test system: production of PG 12 in vascular tissues; experiment: Effect on production of PG I2 in vascular tissues (platelet lysate or aorta microsome); type: biochemical; conditions: pig's blood platelet lysate or microsome obtained from pig's aorta
SMILES,decrease in the blood pressure [1],duration of blood-pressure lowering effect [1],potency of hypotensive activity during repeated administration [2],increase in the formation of PG I2 as compared with a control group [3]
"CCCCCCCC[C@H](CN(CC)C(=O)N1Cc2ccccc2C[C@H]1C(=O)O)C(=O)OCC [calcium (3S)-2-[N-((2R)-2-ethoxycarbonyl-n-decyl)-N-ethylcarbamoyl] - 1,2,3,4-tetrahydro-isoquinoline-3-carboxylate]",about 35 mmHg,more than 6 hours,almost the same potency of its hypotensive activity,–
"CCOC(=O)[C@H](CCc1ccccc1)CN(CC)C(=O)N1Cc2ccccc2C[C@H]1C(=O)O [(3S)-2-[N-((2R)-2-ethoxycarbonyl-4-phenyl-n-butyl)-N-ethylcarbamoyl]-1,2,3,4-tetrahydroisoquinoline-3-carboxylic acid]",about 35 mmHg,more than 6 hours,–,–
"CCCCCCCCCC[C@H](CN(CC)C(=O)N1Cc2ccccc2C[C@H]1C(=O)O)C(=O)O [(3S)-2-[N-((2R)-2-carboxy-n-dodecyl)-N-ethylcarbamoyl]-1,2,3,4-tetrahydroisoquinoline-3-carboxylic acid]",–,–,–,62%

# — patent EP0061745A1, “Tetrahydroisoquinoline compounds, processes for preparation thereof and pharmaceutical composition containing them” (Tanabe Seiyaku Co., Ltd., priority 1981, dated 1982)
